Test results from BindingDB's records for doi:10.1021/bi049459m (University of Florida College of Medicine, 2004).

Columns and labels:
Test in all cases: Protease Inhibition Assay
[1] = target: T1, Dimer of Gag-Pol polyprotein [489-587,K509R,V521I,L522F,M525I,I543V,L552P,A560V,V571A,L579M] (Human immunodeficiency virus 1, UniProt P04585, A560V/I543V/K509R/L522F/L552P/L579M/M525I/V521I/V571A); conditions: pH 4.7; 37 °C
T1 construct: 489-587

[2] = target: T2, Dimer of Gag-Pol polyprotein [489-587,K509R,V521I,L522F,M525I,M535I,L552P,A560V,V571A,L579M] (Human immunodeficiency virus 1, UniProt P04585, A560V/K509R/L522F/L552P/L579M/M525I/M535I/V521I/V571A); conditions: pH 4.7; 37 °C
T2 construct: 489-587

[3] = target: T3, Dimer of Gag-Pol polyprotein [489-587,K509R,V521I,L522F,M525I,L552P,A560V,V571A,I573V,L579M] (Human immunodeficiency virus 1, UniProt P04585, A560V/I573V/K509R/L522F/L552P/L579M/M525I/V521I/V571A)
T3 construct: 489-587

[4] = target: T4, Dimer of Gag-Pol polyprotein [489-587,K509R,V521I,L522F,M525I,M535I,L552P,A560V,V571A,I573V,L579M] (Human immunodeficiency virus 1, UniProt P04585, A560V/I573V/K509R/L522F/L552P/L579M/M525I/M535I/V521I/V571A)
T4 construct: 489-587

[5] = target: T5, Dimer of Gag-Pol polyprotein [489-587] (Human immunodeficiency virus 1, UniProt P04585); conditions: pH 4.7; 37 °C
T5 construct: 489-587

[6] = target: T6, Dimer of Gag-Pol polyprotein [489-587,K509R,V521I,L522F,M525I,M535I,I543V,L552P,A560V,V571A,I573V,L579M] (Human immunodeficiency virus 1, UniProt P04585, A560V/I543V/I573V/K509R/L522F/L552P/L579M/M525I/M535I/V521I/V571A)
T6 construct: 489-587

[7] = target: T7, Dimer of Gag-Pol polyprotein [489-587,K509R,V521I,L522F,M525I,L552P,A560V,V571A,L579M] (Human immunodeficiency virus 1, UniProt P04585, A560V/K509R/L522F/L552P/L579M/M525I/V521I/V571A); conditions: pH 4.7; 37 °C
T7 construct: 489-587

[8] = target: T8, Dimer of Gag-Pol polyprotein [489-587,K509R,V521I,L522F,M525I,I543V,L552P,A560V,V571A,I573V,L579M] (Human immunodeficiency virus 1, UniProt P04585, A560V/I543V/I573V/K509R/L522F/L552P/L579M/M525I/V521I/V571A)
T8 construct: 489-587

**Q.** Which results are given for `Cc1ccccc1CNC(=O)[C@H]1N(C(=O)[C@@H](O)[C@H](Cc2ccccc2)NC(=O)c2cccc(O)c2C)CSC1(C)C` [AG1776]?
**A.** Ki [1]: 0.19 nM; Ki [2]: 0.5 nM; Ki [3]: 0.55 nM; Ki [4]: 2.2 nM; Ki [5]: 0.021 nM; Ki [6]: 5.6 nM; Ki [7]: 0.04 nM; Ki [8]: 9.4 nM
